The subject of data set [1] is ear skin wound model. Description: Ear skin wound model (acute inflammatory response). It is filed as in vivo, CX3CR1-GFP mouse. The settings on record: 100 mg/kg oral once daily, 4 days. Here is the method: To investigate the effect of the inhibitor of KRS translocation to the plasma membranes during monocyte infiltration in acute inflammatory responses, an ear skin wound model using CX3CR1-GFP mouse (Stock no. #005582, Jackson Laboratory, Bar Harbor, USA) was prepared. Monocytes, macrophages and Langerhans cells appear green in CX3R1-GFP mice. Mice were administered orally with vehicle or BC-KI-00053 (100 mg/kg, dissolved in vehicle, once daily) for a total of 4 days from 2 days prior to imaging (D−2, D−1, D−0, D+1). For a vehicle, corn oil:polyethylene glycol 400:Tween 80:methyl cellulose (1%)=20:30:1:49 was used. A 31G syringe was used to puncture the skin of the ear (time D−0) to induce acute inflammatory responses. Blood vessels were labeled using anti-CD31 antibody bound to Alexa Flour 555 (identifiable as red). Confocal microscopy was used as an imaging equipment.

Data set [2] concerns pulmonary arterial hypertension (PAH) model. Description: Monocrotaline pulmonary arterial hypertension (PAH) model, BC-KI-00053. Format: in vivo, SD rats. Here is the method: In order to induce PAH in 6-week-old female SD rats (Oriental Bio), 60 mg/kg of MCT (monocrotaline), a substance that causes pulmonary hypertension through pulmonary arterial injury, was injected subcutaneously. Then animals were divided into four groups (5 animals per group), and orally administered with vehicle, sildenafil (25 mg/kg, once daily) or BC-KI-00053 (25 or 50 mg/kg, dissolved in vehicle, once daily) for 3 weeks. Vehicle was corn oil:polyethylene glycol 400:Tween 80:methyl cellulose (1%)=20:30:1:49.
Three weeks later, rats were anesthetized with isoflurane, and blood flow and pressure were measured using an MPVS cardiovascular pressure and volume system (model name: MPVS Ultra, manufactured by Millar Instruments). Right ventricular systolic pressure (RVESP) and diastolic pressure, left ventricular systolic pressure and diastolic pressure were measured using a dedicated catheter (Mikro-Tip rat pressure catheter, manufactured by Millar Instruments). Cardiac output was measured using a perivascular blood flow probe (Transonic® Flowprobes, manufactured by […]), and experimental techniques were performed in the same manner as described in the literature: Pacher P, Nagayama T, Mukhopadhyay P, Batkai S, Kass D A. Measurement of cardiac function using pressure-volume conductance catheter technique in mice and rats. Nat Protoc 2008, 3(9):1422-34.
IHC staining for CD68, a monocyte/macrophage marker, was performed using lung tissues from each experimental group. Collected lungs were fixed in PFA (paraformaldehyde) according to the conventional procedure, and then embedded in paraffin through water washing, dehydration, and tissue clearing processes. Lung tissue paraffin blocks of rats were cut to a thickness of […] and slides were prepared. Thereafter, staining was performed as follows. First, three times for 5 minutes xylene treatment, 2 minutes in 100% ethanol twice, 95% ethanol, 90% ethanol, 70% ethanol, DW treatment for 2 minutes in this order and washed with PBS for 5 minutes (2 times). After treatment with 0.3% H2O2 (10 minutes), slides were washed twice with PBS for 5 minutes. Then slides were soaked in 0.01M citrate buffer of pH 6.0 and microwaved for 3 minutes and 30 seconds, then antigen retrieval of cooling for 10 seconds and reheating for 10 seconds was repeated for 10 minutes followed by 20 minutes of cooling at room temperature. Afterwards, slides were washed three times for 5 minutes with PBS-T (0.03% Triton-X). After 30 minutes blocking (2% BSA & 2% goat serum in PBS) at 4° C. anti-CD68 antibody (1:200, Abcam, ab31630) was treated overnight at 4° C. After washing three times with PBS-T for 5 minutes, slides were treated with polymer-HRP anti-mouse envision kit (DAKO) for 1 hour at 4° C. After washing 3 times with PBS-T for 5 minutes, 1 ml of DAB substrate buffer and 20 ul of DAB chromogen were mixed and treated with tissue. After 10 minutes when colors developed, slides were washed twice with tertiary distilled water. Stained tissues were treated with Mayer's hematoxylin (Sigma) for 1 minute, and then treated in the order of 70% ethanol, 90% ethanol, 95% ethanol, and 100% ethanol, twice for 2 minutes for each solution. Finally, after three times of xylene treatment for 5 minutes, cover slides were mounted using a mounting solution, and observed with an optical microscope.

Where [3] appears, read: 25 or 50 mg/kg oral once daily 3 weeks.

The text below walks through data of patent publication US11378572B2, “Therapeutic agent for immune cell migration-caused disease and method for screening same” (ZYMEDI CO., LTD., priority 2017, dated 2022).

Consider `COc1ccc(CCN(Cc2ccc(C(=O)O)cc2)c2nc3cccc(F)c3s2)cc1` [BC-KI-00053, 4-({(7-fluorobenzo[d]thiazol-2-yl)[2-(4-methoxyphenyl)ethyl]amino}methyl)benzoic acid], for which the “infiltration of monocytes and macrophages around skin wound” value in data set [1] is listed as “significantly reduced”. For the same compound, in data set [2] (50 mg/kg, not statistically significant), the “left ventricular end systolic pressure (LVESP)” value was “increased”. Moreover, in data set [2] (setting [3]), the “left ventricular end systolic pressure (LVESP)” value was “no decrease” and the “lung tissue infiltration of monocytes/macrophages (CD68 IHC)” value was “clearly reduced”. The “RVESP (right ventricular systolic pressure)” value in data set [2] (25 or 50 mg/kg oral once daily 3 weeks, concentration dependent) is “significantly reduced”. In addition, the “reduction of lung monocyte/macrophage infiltration compared with sildenafil” value in data set [2] (CD68 IHC) is on record as “noticeably superior to sildenafil”. Besides, the “tendency to affect systemic artery pressure compared with sildenafil” value in data set [2] (rat, in vivo) is recorded as “lower tendency”.
